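Method: 48-hour compound exposure of cells in 96-well plates, five concentrations, linear interpolation of endpoints. GI50 = concentration required for 50% inhibition of growth. Definition used: TGI = concentration required for complete inhibition of growth.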
Columns and labels:
Assay in all cases: NCI-60 cell line screen, 48 h
RXF 393 renal = tested on: RXF 393 renal
U251 CNS = tested on: U251 CNS
HCT-116 colon = tested on: HCT-116 colon
NCI-H23 lung = tested on: NCI-H23 lung
COLO 205 colon = tested on: COLO 205 colon
SW-620 colon = tested on: SW-620 colon
SK-MEL-2 melanoma = tested on: SK-MEL-2 melanoma
SK-MEL-5 melanoma = tested on: SK-MEL-5 melanoma
MDA-MB-231 breast = tested on: MDA-MB-231 breast
HCC-2998 colon = tested on: HCC-2998 colon

Structure (SMILES) | TGI (RXF 393 renal) | TGI (U251 CNS) | TGI (HCT-116 colon) | TGI (NCI-H23 lung) | TGI (COLO 205 colon) | TGI (SW-620 colon) | TGI (SK-MEL-2 melanoma) | TGI (SK-MEL-5 melanoma) | TGI (MDA-MB-231 breast) | TGI (HCC-2998 colon) | GI50 (U251 CNS) | GI50 (HCT-116 colon) | GI50 (NCI-H23 lung) | GI50 (COLO 205 colon) | GI50 (HCC-2998 colon) | GI50 (SW-620 colon) | GI50 (SK-MEL-2 melanoma) | GI50 (SK-MEL-5 melanoma) | GI50 (MDA-MB-231 breast)
CC(=O)Nc1ccc(-c2cc(C(=O)O)c3cc4ccccc4cc3n2)cc1 | > 100 µM | > 100 µM | > 100 µM | > 100 µM | > 100 µM | > 100 µM | > 100 µM | > 100 µM | > 100 µM |  |  |  |  |  |  |  |  |  | 
CN1N=CSC12C(=O)N(c1ccccc1)C(=O)N2c1ccccc1 (stereo not drawn) | > 100 µM | > 100 µM | > 100 µM | > 100 µM | > 100 µM | > 100 µM | > 100 µM | > 100 µM |  | > 100 µM |  |  |  |  |  |  |  |  | 
N=C1C(O)C2(I)c3ccccc3N3C(=N)C(O)C4c5ccccc5N1C4C32 (stereo not drawn) | > 100 µM | 43.9 µM | > 100 µM | > 100 µM | > 100 µM | > 100 µM | > 100 µM | > 100 µM | 67.8 µM |  |  |  |  |  |  |  |  |  | 
CCOC(=O)Oc1c(OC)cc(C(=O)c2ccc(OC)c(O)c2OC)cc1OC |  | > 100 µM | 12.8 µM | > 100 µM | 63.5 µM | > 100 µM | > 100 µM | 55.6 µM | > 100 µM | > 100 µM | 0.947 µM | 0.44 µM | 2.29 µM | 12.5 µM | 2.31 µM | 0.489 µM | 1.79 µM | 0.475 µM | 3.31 µM
C/C=C/C(C#N)O[Si](C)(C)C (stereo not drawn) | > 100 µM | > 100 µM | > 100 µM | > 100 µM | > 100 µM | > 100 µM | > 100 µM | > 100 µM |  | > 100 µM |  |  |  |  |  |  |  |  | 
COc1cc(Cl)cc(=O)c(O)c1OC | > 100 µM | > 100 µM | > 100 µM | > 100 µM | > 81.2 µM |  | > 100 µM |  |  | > 100 µM |  |  |  |  |  |  |  |  | 
Oc1cccc(Nc2nc3ccccc3c3occc23)c1 |  | 27.2 µM | 31.1 µM |  | 26.7 µM | 30.8 µM | 27.7 µM | 27 µM | 27 µM | 11.3 µM | 14 µM | 17.3 µM |  | 13.8 µM | 2.67 µM | 17.1 µM | 13.2 µM | 14 µM | 11.5 µM
CCOC(=O)NC(=O)c1cn(CCN2CCN(C(=O)NCCCCCCNC(=O)N3CCN(CCn4cc(C(=O)NC(=O)OCC)c(=O)[nH]c4=O)CC3)CC2)c(=O)[nH]c1=O | > 100 µM | > 100 µM | > 100 µM | > 100 µM | > 100 µM | > 100 µM | > 100 µM | > 100 µM |  | > 100 µM |  |  |  |  |  |  |  |  | 
Cn1ccnc1CCc1c(Cl)cccc1Cl | > 100 µM | > 100 µM | > 100 µM | > 100 µM | > 100 µM | > 100 µM | > 100 µM | > 100 µM |  |  |  |  |  |  |  |  |  |  | 
Cc1c(OC(C)C(=O)O)ccc2c(-c3ccccc3)cc(=O)oc12 (stereo not drawn) | > 100 µM | > 100 µM | > 100 µM | > 100 µM | > 100 µM | > 100 µM |  | > 100 µM |  | > 100 µM |  |  |  |  |  |  |  |  | 
COC1=NCc2ccccc2-c2ccccc21 | > 100 µM | > 100 µM | > 100 µM | > 100 µM |  |  | > 100 µM | > 100 µM |  |  |  |  |  |  |  |  |  |  | 
